Results from ChEMBL document CHEMBL1201862, “PubChem BioAssay data set” (2004).
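The compound was tested at five concentrations on cells cultured in 96-well plates, with a 48-hour exposure period. The concentration for 50% growth inhibition is given as GI50.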 Activity calls are given as the source filed them. No stated cut-off is given here; in the data, active = GI50 up to about 1.1 µM and inactive = higher.

Columns and labels:
Assay in all cases: growth of human tumour cells (NCI), 48 h
Hs-578T = system: Hs-578T
BT-549 = system: BT-549
M14 = system: M14
K562 = system: K562
ACHN = system: ACHN
NCI-H460 = system: NCI-H460
IGROV-1 = system: IGROV-1
MCF7 = system: MCF7
HCC 2998 = system: HCC 2998
U-251 = system: U-251
HL-60 = system: HL-60
UACC-62 = system: UACC-62
SR = system: SR
OVCAR-4 = system: OVCAR-4
SK-MEL-5 = system: SK-MEL-5
SNB-19 = system: SNB-19
RPMI-8226 = system: RPMI-8226
T47D = system: T47D
RXF 393 = system: RXF 393
SW-620 = system: SW-620
DU-145 = system: DU-145
SF-295 = system: SF-295
A498 = system: A498
HCT-15 = system: HCT-15
PC-3 = system: PC-3
A549 = system: A549
MDA-MB-231 = system: MDA-MB-231
SK-MEL-28 = system: SK-MEL-28
Malme-3M = system: Malme-3M
MDA-N = system: MDA-N
SF-268 = system: SF-268
KM12 = system: KM12
SNB-75 = system: SNB-75
EKVX = system: EKVX
OVCAR-5 = system: OVCAR-5
CCRF-CEM = system: CCRF-CEM
CAKI-1 = system: CAKI-1
MDA-MB-435 = system: MDA-MB-435
LOX IMVI = system: LOX IMVI
NCI-H226 = system: NCI-H226
NCI-H522 = system: NCI-H522
SF-539 = system: SF-539
HOP-92 = system: HOP-92
NCI/ADR-RES = system: NCI/ADR-RES
MOLT-4 = system: MOLT-4
UACC-257 = system: UACC-257
COLO 205 = system: COLO 205
SN12C = system: SN12C
TK-10 = system: TK-10
OVCAR-8 = system: OVCAR-8
786-0 = system: 786-0
OVCAR-3 = system: OVCAR-3
SK-MEL-2 = system: SK-MEL-2
NCI-H23 = system: NCI-H23
HCT-116 = system: HCT-116
UO-31 = system: UO-31
HOP-62 = system: HOP-62
HT-29 = system: HT-29
SK-OV-3 = system: SK-OV-3

CC1=C(C(=O)N[C@@H](CC(C)C)C(=O)O)N2C(=O)[C@@H](NC(=O)C(N)c3ccccc3)[C@H]2SC1 (stereo not given in full)
GI50 (Hs-578T): > 100 µM (inactive)
GI50 (BT-549): > 100 µM (inactive)
GI50 (M14): > 100 µM (inactive)
GI50 (K562): > 100 µM (inactive)
GI50 (ACHN): > 100 µM (inactive)
GI50 (NCI-H460): > 100 µM (inactive)
GI50 (IGROV-1): > 100 µM (inactive)
GI50 (MCF7): > 100 µM (inactive)
GI50 (HCC 2998): > 100 µM (inactive)
GI50 (U-251): > 100 µM (inactive)
GI50 (HL-60): > 100 µM (inactive)
GI50 (UACC-62): 79.3 µM (inactive)
GI50 (SR): > 100 µM (inactive)
GI50 (OVCAR-4): > 100 µM (inactive)
GI50 (SK-MEL-5): > 100 µM (inactive)
GI50 (SNB-19): > 100 µM (inactive)
GI50 (RPMI-8226): > 100 µM (inactive)
GI50 (T47D): > 100 µM (inactive)
GI50 (RXF 393): > 100 µM (inactive)
GI50 (SW-620): > 100 µM (inactive)
GI50 (DU-145): > 100 µM (inactive)
GI50 (SF-295): > 100 µM (inactive)
GI50 (A498): > 100 µM (inactive)
GI50 (HCT-15): > 100 µM
GI50 (PC-3): > 100 µM (inactive)
GI50 (A549): > 100 µM (inactive)
GI50 (MDA-MB-231): > 100 µM (inactive)
GI50 (SK-MEL-28): > 100 µM (inactive)
GI50 (Malme-3M): > 100 µM (inactive)
GI50 (MDA-N): > 100 µM (inactive)
GI50 (SF-268): > 100 µM (inactive)
GI50 (KM12): > 100 µM (inactive)
GI50 (SNB-75): > 100 µM (inactive)
GI50 (EKVX): > 100 µM (inactive)
GI50 (OVCAR-5): > 100 µM (inactive)
GI50 (CCRF-CEM): > 100 µM (inactive)
GI50 (CAKI-1): > 100 µM (inactive)
GI50 (MDA-MB-435): > 100 µM (inactive)
GI50 (LOX IMVI): > 100 µM (inactive)
GI50 (NCI-H226): 60.4 µM (inactive)
GI50 (NCI-H522): > 100 µM (inactive)
GI50 (SF-539): > 100 µM (inactive)
GI50 (HOP-92): > 100 µM (inactive)
GI50 (NCI/ADR-RES): > 100 µM (inactive)
GI50 (MOLT-4): > 100 µM (inactive)
GI50 (UACC-257): > 100 µM (inactive)
GI50 (COLO 205): > 100 µM (inactive)
GI50 (SN12C): > 100 µM (inactive)
GI50 (TK-10): > 100 µM (inactive)
GI50 (OVCAR-8): > 100 µM (inactive)
GI50 (786-0): > 100 µM (inactive)
GI50 (OVCAR-3): > 100 µM (inactive)
GI50 (SK-MEL-2): > 100 µM (inactive)

O=C(OC1OC2COC(=O)c3cc(O)c(O)c(O)c3-c3c(cc(O)c(O)c3O)C(=O)OC3C2OC(=O)[C@@]24CC(=O)[C@@](O)(OC25C(=O)O[C@H]2[C@@H](O)CO[C@@]25O)C2(O)Oc5c(O)c(O)cc(c5C24)C(=O)OC13)c1cc(O)c(O)c(O)c1 (stereo not given in full)
GI50 (Hs-578T): > 100 µM (inactive)
GI50 (BT-549): > 100 µM (inactive)
GI50 (M14): 49.3 µM (inactive)
GI50 (NCI-H23): 25.7 µM (inactive)
GI50 (K562): 30.1 µM (inactive)
GI50 (ACHN): 32.1 µM (inactive)
GI50 (NCI-H460): 40.9 µM (inactive)
GI50 (IGROV-1): 75.9 µM (inactive)
GI50 (MCF7): 13.6 µM (inactive)
GI50 (HCC 2998): 28 µM (inactive)
GI50 (U-251): 39.6 µM (inactive)
GI50 (HL-60): 21.2 µM (inactive)
GI50 (UACC-62): 35.7 µM (inactive)
GI50 (SR): 30.3 µM (inactive)
GI50 (OVCAR-4): 37.2 µM (inactive)
GI50 (SK-MEL-5): 42.7 µM (inactive)
GI50 (SNB-19): > 100 µM (inactive)
GI50 (RPMI-8226): 99.5 µM (inactive)
GI50 (T47D): 74 µM (inactive)
GI50 (RXF 393): > 100 µM (inactive)
GI50 (SW-620): 41.2 µM (inactive)
GI50 (DU-145): 44.7 µM (inactive)
GI50 (SF-295): 44 µM (inactive)
GI50 (A498): 9.12 µM (inactive)
GI50 (HCT-15): 22.9 µM
GI50 (PC-3): 42.3 µM (inactive)
GI50 (A549): 27.7 µM (inactive)
GI50 (MDA-MB-231): 0.857 µM (active)
GI50 (SK-MEL-28): > 100 µM (inactive)
GI50 (HCT-116): 36.9 µM (inactive)
GI50 (Malme-3M): > 100 µM (inactive)
GI50 (MDA-N): 31.5 µM (inactive)
GI50 (SF-268): 58.6 µM (inactive)
GI50 (KM12): 18.8 µM (inactive)
GI50 (SNB-75): 34 µM (inactive)
GI50 (EKVX): 34.8 µM (inactive)
GI50 (UO-31): 34.8 µM (inactive)
GI50 (OVCAR-5): 47.2 µM (inactive)
GI50 (CCRF-CEM): 26.7 µM (inactive)
GI50 (CAKI-1): 12.1 µM (inactive)
GI50 (MDA-MB-435): 17.2 µM (inactive)
GI50 (LOX IMVI): 12.6 µM (inactive)
GI50 (NCI-H226): 90.4 µM (inactive)
GI50 (NCI-H522): 19.5 µM (inactive)
GI50 (HOP-92): 31.2 µM (inactive)
GI50 (HOP-62): 74.5 µM (inactive)
GI50 (NCI/ADR-RES): 29.2 µM (inactive)
GI50 (HT-29): 23.2 µM (inactive)
GI50 (MOLT-4): 40.5 µM (inactive)
GI50 (UACC-257): > 100 µM (inactive)
GI50 (COLO 205): 56.4 µM (inactive)
GI50 (SK-OV-3): 83 µM (inactive)
GI50 (SN12C): 56 µM (inactive)
GI50 (OVCAR-8): 37.1 µM (inactive)
GI50 (786-0): 63.1 µM (inactive)
GI50 (OVCAR-3): 50 µM (inactive)
GI50 (SK-MEL-2): > 100 µM (inactive)
